Test results: paper PMC2787016 (PLoS Pathogens, 2009)
Where a SMILES comes first, the peptide text is derived from it. Where no end group is shown, it is not given here.

Each compound was assayed against HLA-A*1101 (Homo sapiens, UniProt P04439, A114D/D185E/E176A/F33Y/L180Q/S129P/T187R) (assay: biochemical).
Assay type: binding

Row | Compound | IC50
1 | KCLNIMLGK [SABV Z64–72] | 678 nM
2 | TTYLGPLSCK [LCMV Z24–33] | 2.8 nM
3 | SIQKNTIFK [MACV NP82–90] | 5.5 nM
4 | SSQRDTILK [SABV NP82–90] | 9.3 nM
5 | LVTFLLLCGR [LASV GPC46–55] | > 5000 nM
6 | RTAPPSLYGR [MACV Z27–36] | 8.9 nM
7 | STYYVHENK [SABV GPC90–98] | 6 nM
8 | SSIIRSLPK [WWAV NP439–447] | 2.5 nM
9 | LVSFLLLAGR [LCMV GPC46–55] | 70 nM
10 | ATVKNVVLR [GTOV L1977–1985] | 54 nM
11 | FTNDSIISH [LCMV GPC112–120] | 38 nM

Each compound was assayed against HLA-A*0201 (Homo sapiens, UniProt P04439, D140Y/D185E/D98H/E176V/E277Q/G131W/G231S/I119V/I121R/I166T/I218V/L300P/L318F/N151K/N90K/P208A/P217A/Q86G/Q94H/R138H/R169H/T345S) (assay: biochemical).
Assay type: binding

Row | Compound | IC50
12 | SIINHKFCNL [LASV GPC111–120] | 2120 nM
13 | GLSQFTQTV [JUNV NP19–27] | 30 nM
14 | ALNIALVAV [JUNV GPC18–26] | 79 nM
15 | TVIKTLLEV [WWAV NP274–282] | 276 nM
16 | AMPGVLSYV [MACV NP432–440] | 8.4 nM
17 | GLLQFIVFL [WWAV GPC42–50] | < 0.05 nM
18 | GLLEWIFRA [SABV GPC142–150] | 1.2 nM
19 | CC(C)C[C@H](NC(=O)[C@H](CC(C)C)NC(=O)[C@H](CC(N)=O)NC(=O)[C@H](CC(C)C)NC(=O)[C@H](CS)NC(=O)[C@H](Cc1c[nH]cn1)NC(=O)[C@H](CCCNC(=N)N)NC(=O)[C@H](CS)NC(=O)[C@H](CC(C)C)NC(=O)[C@@H](N)Cc1ccc(O)cc1)C(=O)O [LCMV Z49–58] (H-YLCRHCLNLL-OH) | 3.9 nM
20 | ALNIALIAV [WWAV GPC18–26] | 27 nM
21 | GLSQFTHTV [MACV NP19–27] | 18 nM
22 | AINIALIAV [SABV GPC18–26] | 834 nM
23 | AVYNFATCGI [LCMV GPC34–43] | 137 nM
24 | LLPDALLFTL [SABV NP547–556] | 77 nM

Each compound was assayed on human JA2.1 cells infected with the appropriate rVACV (assay: not given).
Assay type: cell-based, HLA-A*0201 transgenic mice
Set-up: key to Natural processing in human APCs: +, Processed; +/−, weakly processed; −, not processed

Row | Compound | Natural processing in human APCs | Recognition of rVACV-infected human target cells by peptide-primed CD8+ T cells
25 | GLLQFIVFL [WWAV GPC42–50] | + | robust

Each compound was assayed on HLA-restricted target cells pulsed with peptide (assay: not given).
Assay type: cell-based, HLA-A*1101 transgenic mice

Row | Compound | % of Epitope response
26 | LVTFLLLCGR [LASV GPC46–55] | 147%

What follows are compounds tested on peptide-pulsed JA2.1 cells (assay: not given).
Assay type: cell-based, HLA-A*0201 transgenic mice

Row | Compound | Identified as CD8+ T cell epitope after rVACV infection
27 | GLLQFIVFL [WWAV GPC42–50] | identified
